{
  "source": "patent US20210063413A1",
  "about": "“DENDRITIC CELL POTENCY ASSAY” (MEDIGENE IMMUNOTHERAPIES GMBH, priority 2017, published 2021)",
  "system": "dendritic cells",
  "assay": "IL-10/IL-12 secretion of stimulated dendritic cells (ELISA / ELISPOT) compared with the conventional Signal 3 Assay",
  "type": "cell-based, human",
  "settings": "especially immature DCs (iDCs) and Jonuleit maturated DCs; FIG. 4 ELISA, FIG. 5 ELISPOT",
  "procedure": "Monocytes are isolated with adherent isolation followed by dendritic cell generation for 3 days using IL-4 and GMSCF. Afterwards dendritic cells were maturated with MDG cocktail and IL-4 and GMCSF for 24 h. In case of Jonuleit cocktails cells were incubated for 6 days using IL-4 and GMSCF. Then cells where incubated with the Jonuleit cocktail (and IL-4 and GMCSF) for 24 h. For all assays, frozen dendritic cells were used thawed the day before the assay and incubated in DC medium until assay start. Stimulation is carried out for 24 h in a 96 well plate. Therefore, 11,000 dendritic cells were seeded per well. 1.1 μl CD40L in 110 μl DC Medium (VLE RPMI 1640 with 1.5% human serum) 1 μg/ml LPS and R848 were added.\nElisa assay was performed according to the protocols of the human IL-10, IL12p70 respectively, DuoSet ELISA-Kit (R&D Systems, Inc, Minneapolis, USA).\nThe IL-10/IL-12 Elispot assay was carried out according to the protocol of the Human IL-10/IL-12 Double-Color ELISPOT kit of (C.T.L. Cellular technology Limited, Cleaveland, USA)",
  "data": [
    {"compound": "CCOCc1nc2c(N)nc3ccccc3c2n1CC(C)(C)O", "note": "[R848, 4-amino-2-ethoxymethyl-α,α-dimethyl-1H-imidazol[4,5-c]quinoline-1-ethanol]", "values": [
      {"measurement": "IL-10 secretion with R848 as costimulatory reagent added to CD40L", "result": "necessary as a costimulatory reagent for optimal IL-10 secretion"}
    ]}
  ]
}
